Assay results from article PMC11795529, “Simulation of Antral Conditions for Estimating Drug Apparent Equilibrium Solubility after a High-Calorie, High-Fat Meal” (Molecular Pharmaceutics, 2025).
In brackets after ≈: the same amount, converted by molar mass. Several values for one entry are separate records, joined by “and”; a condition that tells them apart may be missing. Equal entries are not always repeated. Where two headings read alike, the source gives them in different places.

What was measured:
[1] = cited from earlier work; for Ketoconazole Concentration, Mean: three samples
[2] = cited from earlier work
[3] = Shake-flask apparent equilibrium solubility in biorelevant media (FeSSGF-V2, FEDGAS pH 3, FeSSGF-V3); format: physicochemical
Experimental: Biorelevant media were prepared on the day of the solubility measurements.
FEDGAS1/2 pH = 3 (Level II biorelevance[5]) was prepared as FEDGAS pH = 3 but with half the amount of FEDGASgel, i.e., by using 7.65 g of FEDGASgel/90 mL.
FEDGAS1/4 pH = 3 (Level II biorelevance[5]) was prepared as FEDGAS pH = 3 but with 1/4 of the amount of FEDGASgel, i.e., by using 3.825 g of FEDGASgel/90 mL.
FEDGASbuffer pH = 3 (Level I biorelevance[5]) was prepared by diluting FEDGAS buffer concentrate with distilled water, as indicated in Table 3.
In Level III FeSSGF-V3, the presence of proteins was simulated using Régilait Skimmed Milk Powder. The high-calorie, high-fat meal consists of up to about 1000 kcal and ≈15% of the total amount of calories is derived from proteins.[15],[16] If 1 g of protein corresponds to 4 kcal, then the meal contains up to about 37 g of proteins. Based on phenol red data, after a high-calorie, high-fat meal and a glass of water 30 min after initiation of meal intake, the impact of resting gastric contents/swallowed saliva/gastric secretions on the dilution of antral contents is substantial; however, dilution of contents occurs predominantly during meal administration.[8] Specifically, when 100 mg of phenol red was included in the meal, the mean phenol red concentration in the antrum fluctuated around 0.06 mg/mL for at least 3 h after initiation of meal administration.[6] It can, therefore, be assumed that the protein concentration in the antral region would be about 37 g × (0.06 mg/mL/100 mg) = 0.0222 g/mL ≈ 22 mg/mL. Since Régilait contains 36% w/w proteins, Régilait Skimmed Milk Powder 6.1% w/v in medium is equivalent to 2.196% (w/v) protein concentration, i.e., ≈ 22 mg/mL.

[4] = Level III FeSSGF-V3HCl and HGFfed15 sample, 37 °C, shake-flask
[5] = Shake-flask apparent equilibrium solubility in pooled human antral aspirates (HGFfed) collected after a high-calorie, high-fat meal and water; format: physicochemical; details: pooled antral (gastric) aspirates, fed state
[6] = set-up: method as in PMID 19644845; details: cited from earlier work
physchem = details: for solubility thermodynamic at 4 h: human, pooled antral (gastric) aspirates, fed state, thermodynamic from solid; for solubility: simple aqueous solution

C#C[C@]1(O)CC[C@H]2[C@@H]3CCC4=Cc5oncc5C[C@]4(C)[C@H]3CC[C@@]21C [Danazol]
Danazol Concentration ([1]; Level II FeSSIF, 1st filtration, samples 1, 2, 3 in order): 26.61 µg/mL and 26.22 µg/mL and 26.44 µg/mL | Danazol Concentration ([1]; Level II FeSSIF, 2nd filtration, samples 1, 2, 3 in order): 26.34 µg/mL and 25.39 µg/mL and 25.44 µg/mL | adsorption on regenerated cellulose filter ([1]; Level II FeSSIF): negligible adsorption | % adsorbed ([1]; Level II FeSSIF, samples 1, 2, 3 in order): 1.04% and 3.18% and 3.78% | logP [2]: 4.53

CC(=O)N1CCN(c2ccc(OCC3COC(Cn4ccnc4)(c4ccc(Cl)cc4Cl)O3)cc2)CC1 (stereo not drawn) [Ketoconazole]
aqueous solubility at pHeq as share of measured apparent solubility (HGFfed45): 21% | aqueous solubility at pHeq as share of measured apparent solubility (HGFfed75): 22% | aqueous solubility at pHeq as share of measured apparent solubility (HGFfed105): 18% | aqueous solubility at pHeq as share of measured apparent solubility (HGFfed135): 18% | times higher than the point estimate of intragastric solubility ([3]; FEDGAS1/2 pH = 3 and FEDGAS1/4 pH = 3 vs 3 mg/mL): more than 1.6 times | times higher than the point estimate of intragastric solubility ([3]; FEDGAS pH = 3 vs 3 mg/mL): more than 2.5 times | percent higher than the point estimate for intragastric solubility ([3]; FEDGASbuffer pH 3 vs 3 mg/mL): 50% | percent lower than the point estimate for intragastric solubility ([3]; Level I FeSSGF-V2 vs 3 mg/mL): 30% | solubility thermodynamic at 4 h ([3]; Level I FeSSGF-V3acetates, pH 3, Level I FeSSGF-V3acetates, initial pH 3, pHeq 3.7): 3200 µg/mL (≈ 6.02 mM) | percent lower than the point estimate for intragastric solubility ([3]; Level II FeSSGF-V2 vs 3 mg/mL): more than 40% | solubility thermodynamic at 4 h ([3]; Level II FeSSGF-V3acetates, pH 3, Level II FeSSGF-V3acetates, initial pH 3, pHeq 3.7): 3450 µg/mL (≈ 6.49 mM) | solubility thermodynamic at 4 h ([3]; Level III FeSSGF-V3HCl, pH 3, Level III FeSSGF-V3HCl, initial pH 3, pHeq 3.8): 3730 µg/mL (≈ 7.02 mM) | percent higher than the estimated point solubility in antral contents ([3]; Level III FeSSGF-V3 prepared with hydrochloric acid): 24% | solubility thermodynamic at 4 h ([3]; biorelevant medium, 37 °C, pH 3, fassgf or other biorelevant, thermodynamic from solid, FEDGAS1/2 pH = 3 (Level II), mean(SD), n = 3): 5650 µg/mL (≈ 10.6 mM) | solubility thermodynamic at 4 h ([3]; biorelevant medium, 37 °C, pH 3, fassgf or other biorelevant, thermodynamic from solid, FEDGAS1/4 pH = 3 (Level II), mean(SD), n = 3): 5070 µg/mL (≈ 9.54 mM) | solubility thermodynamic at 4 h ([3]; biorelevant medium, 37 °C, pH 3, fassgf or other biorelevant, thermodynamic from solid, FEDGAS pH = 3 (Level II), mean(SD), n = 3): 7570 µg/mL (≈ 14.2 mM) | solubility thermodynamic at 4 h ([3]; biorelevant medium, 37 °C, pH 3, fassgf or other biorelevant, thermodynamic from solid, Level II FeSSGF-V2, pH 3, mean(SD), n = 3): 1640 µg/mL (≈ 3.08 mM) | solubility thermodynamic at 4 h ([3]; biorelevant medium, pH 3, FEDGASbuffer pH 3 (Level I), mean(SD), n = 3): 4600 µg/mL (≈ 8.66 mM) | solubility thermodynamic at 4 h ([3]; biorelevant medium, pH 3, Level I FeSSGF-V2, pH 3, mean(SD), n = 3): 2140 µg/mL (≈ 4.03 mM) | incubation time within which equilibrium is achieved [4]: ≤ 4 h | solubility at 4 h ([5]; 37 °C, plasma or biological fluid, thermodynamic from solid, from the four mean values in HGFfed45, 75, 105, 135, read-out: grand mean apparent solubility in HGFfed): 2290 µg/mL (≈ 4.31 mM) | solubility thermodynamic at 4 h ([5]; HGFfed45, 75, 105, 135, 37 °C, 4 h, mean(SD), read-out: mean apparent equilibrium solubility in pooled aspirates, range over the four HGFfed samples): 770 to 3670 µg/mL (≈ 1.45 to 6.91 mM) | apparent solubility in human antral fluids ([6]; 30 min after 500 mL Ensure Plus, pHeq 5.7): 630 µg/mL | apparent solubility in human antral fluids ([6]; 60 min after 500 mL Ensure Plus, pHeq 5.1): 3150 µg/mL | apparent solubility in human antral fluids ([6]; 120 min after 500 mL Ensure Plus, pHeq 4.9): 4700 µg/mL | solubility thermodynamic (physchem; aqueous phase, pH 3.7): 1290 µg/mL (≈ 2.43 mM) | solubility thermodynamic at 4 h (physchem; pH 4, plasma or biological fluid): 3000 µg/mL (≈ 5.65 mM) | solubility thermodynamic at 4 h (physchem; pH 4.1, plasma or biological fluid): 2340 µg/mL (≈ 4.4 mM) | solubility thermodynamic at 4 h (physchem; pH 4.2, plasma or biological fluid): 1470 µg/mL (≈ 2.77 mM) | solubility thermodynamic at 4 h (physchem; pH 4.6, plasma or biological fluid): 610 µg/mL (≈ 1.15 mM) | solubility thermodynamic at 4 h (physchem; plasma or biological fluid): 1850 µg/mL (≈ 3.48 mM) | solubility (physchem; pH 4): 650 µg/mL (≈ 1.22 mM) | solubility (physchem; pH 4.1): 520 µg/mL (≈ 0.978 mM) | solubility (physchem; pH 4.2): 410 µg/mL (≈ 0.771 mM) | solubility (physchem; pH 4.6): 170 µg/mL (≈ 0.32 mM) | adsorption on regenerated cellulose filter ([1]; aqueous buffers pH 3.5 to 5): negligible adsorption | Ketoconazole Concentration, Mean ([1]; pH 3.5, 1st filtration): 2.8763 mg/mL | Ketoconazole Concentration, Mean ([1]; pH 3.5, 2nd filtration): 2.8250 mg/mL | % adsorbed ([1]; pH 3.5): 1.63% | Ketoconazole Concentration, Mean ([1]; pH 4.0, 1st filtration): 0.9297 mg/mL | Ketoconazole Concentration, Mean ([1]; pH 4.0, 2nd filtration): 0.9288 mg/mL | % adsorbed ([1]; pH 4.0): 0.23% | Ketoconazole Concentration, Mean ([1]; pH 5.0, 1st filtration): 0.0825 mg/mL | Ketoconazole Concentration, Mean ([1]; pH 5.0, 2nd filtration): 0.0775 mg/mL | % adsorbed ([1]; pH 5.0): 6.16% | intrinsic aqueous solubility [2]: ≈ 2 μg/mL
